Test results published in paper PMC7281349, “Anti-Inflammatory and Protein Tyrosine Phosphatase 1B Inhibitory Metabolites from the Antarctic Marine-Derived Fungal Strain Penicillium glabrum SF-7123” (Marine Drugs, 2020).

Legend:
[1] = test system: LPS-stimulated BV2 microglial cells; test: NO production (nitrite, Griess reaction) in LPS-stimulated BV2 microglial cells; assay type: cell-based, murine; settings: for Effect on alteration of NO production: 80.0 μM; for IC50: Mus musculus, BV-2, mean ± SD of triplicate experiments, read-out: NO Inhibitory Effects, BV2 Cells (IC50)
Source text: (§1) LPS is a major cell wall component of Gram-negative bacteria. LPS is an intensive stimulator of macrophages and microglia, and thus treatment of these cells with LPS is frequently employed in research related to the inflammatory phenomenon. In the current study, all the isolated compounds (1–5) were investigated for their anti-neuroinflammatory and anti-inflammatory effects by examining their effects on the overproduction of NO and PGE2 in LPS-stimulated BV2 microglia and RAW264.7 macrophage cells. LPS stimulation increased the production of NO and PGE2 in both cell lines. […] Thus, this compound was selected to further examine the anti-inflammatory effect and to reveal its underlying mechanisms. […] Moreover, compound 2 attenuated the protein expression of iNOS and COX-2 in a dose-dependent manner in LPS-stimulated BV2 cells (Figure 3A).
(§2) RAW264.7 and BV2 cells were maintained at 5 × 10^5 cells/mL in Dulbecco’s modified Eagle’s medium (DMEM) containing 10% fetal bovine serum (FBS), penicillin G (100 U/mL), streptomycin (100 mg/L), and L-glutamine (2 mM) and incubated at 37 °C in a humidified atmosphere containing 5% CO2. DMEM, FBS, and other tissue culture reagents were purchased from Gibco BRL Co. Cell viability was evaluated by the MTT assay as described in our previous report.
To determine the nitrite concentration in the medium as an indicator of NO production, the Griess reaction was carried out as described in our previous report.

[2] = test system: LPS-stimulated BV2 microglial cells; test: PGE2 production in LPS-stimulated BV2 cells; assay type: cell-based, murine; settings: Mus musculus, BV-2, mean ± SD of triplicate experiments, read-out: PGE2 Inhibitory Effects, BV2 Cells (IC50)
Source text: as §1, §2
The level of PGE2 present in each sample was determined using a commercially available kit from R&D Systems (Minneapolis, MN, USA); the details of this assay were described previously. Three independent assays were performed according to the manufacturer’s instructions.

[3] = target: T1, PTP1B (human, recombinant) (Homo sapiens, UniProt P18031); test: PTP1B enzyme assay with pNPP substrate; assay type: biochemical; settings: for inhibition at 50 µM: 50 μM compound, read-out: Inhibitory Effects on PTP1B, inhibition percentage at 50 μM; for inhibition at 50 µM / IC50: pNPP substrate; for Mode of PTP1B inhibition (Lineweaver–Burk plot): pNPP 0.25-2.0 mM, Km and Vmax analysis; for IC50: mean ± SD of triplicate experiments, read-out: Inhibitory Effects on PTP1B (IC50)
T1 construct: purchased BIOMOL Research Laboratories, Inc
T1 sequence (P18031 1-435): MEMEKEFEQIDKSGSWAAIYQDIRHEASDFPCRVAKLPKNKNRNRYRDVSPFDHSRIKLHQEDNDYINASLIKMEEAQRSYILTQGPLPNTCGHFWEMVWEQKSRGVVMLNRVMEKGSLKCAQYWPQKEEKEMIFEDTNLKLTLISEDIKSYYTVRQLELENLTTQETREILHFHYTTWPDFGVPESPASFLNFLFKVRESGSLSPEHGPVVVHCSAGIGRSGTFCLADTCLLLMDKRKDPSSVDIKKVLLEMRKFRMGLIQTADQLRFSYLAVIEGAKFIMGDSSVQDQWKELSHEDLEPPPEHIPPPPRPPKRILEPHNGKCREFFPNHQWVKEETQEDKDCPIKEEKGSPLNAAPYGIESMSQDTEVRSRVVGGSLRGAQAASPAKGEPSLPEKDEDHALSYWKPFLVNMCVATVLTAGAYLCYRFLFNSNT
Method: In addition to the investigation of the anti-inflammatory and anti-neuroinflammatory effects of the isolated metabolites in cellular models, this study attempted to assess the inhibitory effect of the isolated compounds against PTP1B activity.
PTP1B (human, recombinant) used in the current study was purchased from BIOMOL Research Laboratories, Inc. PTP1B enzyme activity was determined using 2 mM of pNPP as a substrate in 50 mM citrate buffer solution (pH 6.0, 0.1 M NaCl, 1 mM EDTA, and 1 mM dithiothreitol). The reaction mixture was incubated at 30 °C for 30 min, and the reaction was terminated by the addition of 1 N NaOH. The amount of p-nitrophenol produced by the enzyme was estimated by measuring the increase in absorbance at 405 nm. The nonenzymatic hydrolysis of 2 mM pNPP was corrected by measuring the increase in absorbance at 405 nm in the absence of PTP1B [31]. The kinetic analysis involved the following: the assays were performed using a reaction mixture that contained different concentrations of pNPP (0.25 mM, 0.5 mM, 1.0 mM, and 2.0 mM) as a PTP1B substrate in the absence or presence of compounds 4 and 5. The Michaelis–Menten constant (Km) and maximum velocity (Vmax) of PTP1B were determined by the Lineweaver–Burk plot using the GraphPad Prism® 4 program (GraphPad Software Inc., San Diego, CA, USA).

[4] = test system: IL-1β, TNF-α, IL-6, IL-12 mRNA in LPS-stimulated BV2 cells; test: qRT-PCR of pro-inflammatory cytokine mRNA in LPS-stimulated BV2 cells; assay type: cell-based, murine; settings: 3 h pre-treatment, LPS 1 µg/mL for 12 h
[5] = test system: iNOS and COX-2 protein expression in LPS-stimulated BV2 cells; test: Western blot of iNOS and COX-2 in LPS-stimulated BV2 cells; assay type: cell-based, murine; settings: 1.0, 2.0, 4.0 μM, dose-dependent, LPS 1 μg/mL 24 h
Method: Cells were pre-treated with compound 2 (1.0, 2.0, and 4.0 μM) for 3 h and stimulated with LPS (1 μg/mL) for 24 h. The representative blots of three independent analyses for iNOS and COX-2 expression are shown.
(§3) Western blot analysis was carried out according to our previous report. Briefly, cells were harvested by centrifugation at 200 g for 3 min, followed by a washing step with RIPA lysis buffer (25 mM Tris-HCl buffer (pH 7.6), 150 mM NaCl, 1% NP-40, 1% sodium deoxycholate, and 0.1% SDS). Primary antibodies (COX-2: sc-1745; iNOS: sc-650; IкB-α: sc-371; p-IкB-α: sc-8404; p50: sc-7178; and p65: sc-8008) were purchased from Santa Cruz Biotechnology, and secondary antibodies (mouse: ap124p; goat: ap106p; and rabbit: ap132p) were purchased from Millipore.

[6] = test system: NF-κB pathway in LPS-stimulated BV2 cells; test: NF-κB pathway activation (western blot, DNA-binding ELISA) in LPS-stimulated BV2 cells; assay type: cell-based, murine
Method: After pre-treatment with compound 2 (1.0, 2.0, and 4.0 μM) for 3 h, the cells were stimulated with LPS for 1 h. (A–F) Proteins were obtained, and specific anti-IκB-α, anti-p- IκB-α, anti-p65, and anti-p50 antibodies were employed for western blot analysis. Representative blots of three independent experiments are shown. Band intensity was quantified by densitometry and normalized to β-actin for the cytoplasmic fraction and to proliferating cell nuclear antigen (PCNA) for the nuclear fraction. (G, H) NF-κB binding activity in the nuclear fraction was determined using an NF-κB ELISA kit by Active Motif (* p < 0.05; ** p < 0.01; *** p < 0.001) and then compared to that of the LPS-treated group.
Western blot analysis was carried out according to our previous report. Briefly, cells were harvested by centrifugation at 200 g for 3 min, followed by a washing step with RIPA lysis buffer (25 mM Tris-HCl buffer (pH 7.6), 150 mM NaCl, 1% NP-40, 1% sodium deoxycholate, and 0.1% SDS). […]
The DNA-binding activity of NF-κB in the nuclear extracts was measured using the TransAM® kit (Active Motif, Carlsbad, CA, USA); three independent assays for each sample were conducted according to the manufacturer’s instructions.

[7] = test system: MAPK pathways (ERK, JNK, p38 MAPK) in LPS-stimulated BV2 cells; test: MAPK phosphorylation (western blot) in LPS-stimulated BV2 cells; assay type: cell-based, murine; settings: 1.0, 2.0, 4.0 μM pre-treatment 3 h, LPS 1 h
Method: After pre-treatment with compound 2 (1.0, 2.0, and 4.0 μM) for 3 h, the cells were stimulated with LPS for 1 h. Western blot analysis was performed to determine the phosphorylated levels of extracellular signal-regulated kinases (ERK) (p-ERK), c-Jun N-terminal kinases (JNK) (p-JNK), and p38 MAPK (p-p38 MAPK). Representative blots of three independent experiments are shown. Band intensity was quantified by densitometry and normalized to β-actin. * p < 0.05; *** p < 0.001 as compared to the LPS-treated group.
as §3

[8] = test system: PC12 pheochromocytoma cells; parameters: method as in doi:10.1002/1099-0690(200105)2001:10<1963::AID-EJOC1963>3.0.CO; settings: cited from earlier work
endothelin binding = settings: cited from earlier work
HIV-1-integrase = settings: cited from earlier work

| Compound | Effect on alteration of NO production [1] | IC50 [1] [µM] | IC50 [2] [µM] | inhibition at 50 µM [3] [%] | mRNA over-expression of IL-1β, TNF-α, IL-6 and IL-12 [4] | Protein expression of iNOS and COX-2 [5] | Activation of the NF-κB pathway (IκB-α phosphorylation/degradation, p50/p65 nuclear translocation) ([6]; 1.0, 2.0, 4.0 μM pre-treatment 3 h, LPS 1 h) | DNA binding activity of the p65 subunit ([6]; nuclear fraction, NF-κB ELISA kit) | Increased phosphorylation levels of ERK and JNK MAPKs [7] | LPS-induced p38 MAPK phosphorylation [7] | Neurite outgrowth in PC12 pheochromocytoma cells [8] | Endothelin binding inhibition (endothelin binding) | Mode of PTP1B inhibition (Lineweaver–Burk plot) [3] | IC50 [3] [µM] | HIV-1-integrase inhibition (HIV-1-integrase) |
| --- | --- | --- | --- | --- | --- | --- | --- | --- | --- | --- | --- | --- | --- | --- | --- |
| COc1cc2c(cc1O)OCC1=C2O[C@@H](C)CC1=O [Compound 1, 9-O-methylneuchromenin] | did not significantly affect | > 80 | > 80 | 45.7 | – | – | – | – | – | – | – | – | – | – | – |
| C[C@H]1CC(=O)C2=C(O1)c1cc(O)c(O)cc1OC2 [Compound 2, neuchromenin] | – | 2.7 ± 0.1 | 3.2 ± 0.2 | 37.8 | effectively decreased | attenuated | suppressed | decreased | unchanged | inhibited | induced neurite outgrowth | – | – | – | – |
| COC(=O)c1cc(O)cc(OC)c1Oc1cc(C)cc(O)c1C(=O)O [Compound 3, asterric acid] | did not significantly affect | > 80 | > 80 | 13.7 | – | – | – | – | – | – | – | endothelin binding inhibitor | – | – | – |
| CC1=Cc2oc3cc(O)c(O)cc3c(=O)c2CO1 [Compound 4, myxotrichin C] | – | 28.1 ± 1.4 | 25.2 ± 1.3 | – | – | – | – | – | – | – | – | – | noncompetitive inhibitor | 19.2 ± 1 | – |
| C/C=C/c1cc(=O)c(C(=O)c2c(OC)cc(OC)cc2C(=O)OC)co1 [Compound 5, deoxyfunicone] | – | 10.6 ± 0.5 | 32.3 ± 1.6 | – | – | – | – | – | – | – | – | – | competitive | 24.3 ± 1.2 | HIV-1-integrase inhibitor |
